Experimental data taken from patent US7932284B2, “Indole sulfonamide modulators of progesterone receptors” (Eli Lilly and Company, priority 2006, dated 2011).

Legend:
[1] = biological target: T1, human GR (glucocorticoid receptor) (Homo sapiens, UniProt P04150); assay: GR competition binding assay (HEK293 cell lysate); details: 0.3 nM 3H-dexamethasone, 293-GR lysate
T1 construct: expressed in transfected cells; host or cells: HEK293
T1 sequence (P04150 1-777): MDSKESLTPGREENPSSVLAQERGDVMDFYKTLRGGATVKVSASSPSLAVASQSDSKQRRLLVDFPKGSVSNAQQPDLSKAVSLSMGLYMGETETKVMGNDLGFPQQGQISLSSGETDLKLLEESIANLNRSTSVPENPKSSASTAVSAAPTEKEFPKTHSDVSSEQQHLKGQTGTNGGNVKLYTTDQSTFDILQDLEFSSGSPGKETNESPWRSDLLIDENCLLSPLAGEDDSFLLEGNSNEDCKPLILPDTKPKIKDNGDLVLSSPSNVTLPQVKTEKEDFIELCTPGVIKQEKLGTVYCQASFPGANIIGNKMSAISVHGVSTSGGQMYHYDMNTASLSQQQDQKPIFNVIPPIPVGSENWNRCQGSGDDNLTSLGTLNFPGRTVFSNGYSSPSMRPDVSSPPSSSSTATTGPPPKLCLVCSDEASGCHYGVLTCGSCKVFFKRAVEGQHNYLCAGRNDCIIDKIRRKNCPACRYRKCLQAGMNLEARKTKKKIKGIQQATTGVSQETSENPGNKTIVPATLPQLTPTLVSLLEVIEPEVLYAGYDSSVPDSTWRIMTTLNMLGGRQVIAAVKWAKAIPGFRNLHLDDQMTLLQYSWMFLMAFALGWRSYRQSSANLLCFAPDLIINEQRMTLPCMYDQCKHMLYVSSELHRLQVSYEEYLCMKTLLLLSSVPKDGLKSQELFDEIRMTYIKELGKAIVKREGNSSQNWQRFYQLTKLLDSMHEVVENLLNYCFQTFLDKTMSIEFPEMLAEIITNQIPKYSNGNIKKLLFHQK
Experimental: (§1) Cell lysates from HEK293 cells overexpressing human GR (glucocorticoid receptor), AR (androgen receptor), MR (mineralocorticoid receptor) or PR (progesterone receptor) are used for competition binding assays to determine Ki values for compounds of interest. Briefly, competition binding assays are run in a buffer containing 20 mM HEPES, pH 7.6, 0.2 mM EDTA, 75 mM NaCl, 1.5 mM MgCl2, 20% glycerol, 20 mM sodium molybdate, 0.2 mM DTT, 20 ug/ml aprotinin, and 20 ug/ml leupeptin, using either 0.3 nM ^3H-dexamethasone for GR binding, 0.36 nM ^3H-methyltrienolone for AR binding, 0.25 nM ^3H-aldosterone for MR binding, or 0.29 nM ^3H-methyltrienolone for PR binding, and either 20 ug 293-GR lysate, 22 ug 293-AR lysate, 20 ug 293-MR lysate or 40 ug 293-PR lysate per well. Competing compounds are added at various concentrations in half-log increments. Non-specific binding is determined in the presence of 500 nM dexamethasone for GR binding, 500 nM aldosterone for MR binding, or 500 nM methyltrienolone for AR and PR binding. The binding reaction (140 μl) is incubated overnight at 4° C., then 70 μl of cold charcoal-dextran buffer (containing per 50 ml of assay buffer, 0.75 g of charcoal and 0.25 g of dextran) is added to each reaction. Plates are mixed 8 minutes on an orbital shaker at 4° C. Plates are then centrifuged at 3,000 rpm at 4° C. for 10 minutes. An aliquot of 120 μl of the mixture is transferred to another 96-well plate and 175 μl of Wallac Optiphase “Hisafe 3” scintillation fluid is added to each well. Plates are sealed and shaken vigorously on an orbital shaker. After an incubation of 2 hrs, plates are read in a Wallac Microbeta counter. […] The Kd for ^3H-dexamethasone for GR binding, ^3H-methyltrienolone for AR binding, ^3H-aldosterone for MR binding, or ^3H-methyltrienolone for PR binding, is determined by saturation binding. The IC50 values for compounds are converted to Ki using Cheng-Prusoff equation and the Kd determined by saturation binding assay.

[2] = biological target: T2, human PR (progesterone receptor) (Homo sapiens, UniProt P06401); assay: PR competition binding assay (HEK293 cell lysate); details: 0.29 nM 3H-methyltrienolone, 293-PR lysate
T2 construct: expressed in transfected cells; host or cells: HEK293
T2 sequence (P06401 1-933): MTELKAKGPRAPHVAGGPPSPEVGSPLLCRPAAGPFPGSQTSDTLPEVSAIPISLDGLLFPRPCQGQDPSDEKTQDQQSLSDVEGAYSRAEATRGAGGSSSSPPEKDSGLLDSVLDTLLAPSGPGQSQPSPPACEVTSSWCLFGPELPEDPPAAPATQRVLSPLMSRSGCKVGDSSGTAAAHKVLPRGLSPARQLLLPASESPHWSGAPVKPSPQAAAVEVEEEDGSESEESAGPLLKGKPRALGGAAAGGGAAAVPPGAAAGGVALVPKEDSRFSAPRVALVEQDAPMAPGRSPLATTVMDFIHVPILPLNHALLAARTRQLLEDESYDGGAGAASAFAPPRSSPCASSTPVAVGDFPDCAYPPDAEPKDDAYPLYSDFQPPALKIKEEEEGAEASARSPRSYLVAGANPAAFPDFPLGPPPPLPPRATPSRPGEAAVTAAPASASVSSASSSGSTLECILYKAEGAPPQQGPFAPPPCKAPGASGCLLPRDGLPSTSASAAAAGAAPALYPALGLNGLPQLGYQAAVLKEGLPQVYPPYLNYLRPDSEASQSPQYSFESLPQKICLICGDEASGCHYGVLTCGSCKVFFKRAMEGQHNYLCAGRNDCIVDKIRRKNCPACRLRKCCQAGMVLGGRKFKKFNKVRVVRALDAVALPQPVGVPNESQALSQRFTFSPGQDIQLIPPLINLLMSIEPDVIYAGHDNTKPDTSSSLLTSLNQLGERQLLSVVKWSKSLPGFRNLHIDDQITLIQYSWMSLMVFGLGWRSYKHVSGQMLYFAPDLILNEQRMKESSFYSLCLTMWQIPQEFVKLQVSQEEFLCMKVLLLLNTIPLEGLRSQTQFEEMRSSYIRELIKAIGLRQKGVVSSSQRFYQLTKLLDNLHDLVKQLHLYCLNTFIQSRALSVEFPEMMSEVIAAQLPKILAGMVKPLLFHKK
Experimental: as §1
More preferably the compounds of the present invention have PR binding value K; of <10 nM.

**Q.** With `CC(C)n1cc(-c2ccc3c(c2)COC3=O)c2ccc(NS(C)(=O)=O)cc21` [Example 97, N-[1-Isopropyl-3-(1-oxo-1,3-dihydro-isobenzofuran-5-yl)-1H-indol-6-yl]-methanesulfonamide] as the compound, how does the Ki [1] read?
**A.** The Ki was greater than 1 µM.

**Q.** What about the Ki [2] of the same compound?
**A.** The Ki was less than 0.05 µM.

**Q.** Which results are given for `CCOC(=O)c1ccc(-c2cn(C(C)C)c3cc(NS(C)(=O)=O)ccc23)cc1` [Example 74, 4-(1-Isopropyl-6-methanesulfonylamino-1H-indol-3-yl)-benzoic acid ethyl ester]?
**A.** Ki [1]: > 1 µM; Ki [2]: < 0.05 µM

**Q.** What does the source list for `Cn1cc(-c2ccc([N+](=O)[O-])cc2)c2ccc(NS(C)(=O)=O)cc21` [Example 30, N-[1-Methyl-3-(4-nitro-phenyl)-1H-indol-6-yl]-methanesulfonamide]?
**A.** Ki [1]: > 1 µM; Ki [2]: < 0.05 µM

**Q.** How did the Ki [1] turn out when `CC(C)n1cc(-c2ccc(C(N)=O)cc2)c2ccc(NS(C)(=O)=O)cc21` [Example 87, 4-(1-Isopropyl-6-methanesulfonylamino-1H-indol-3-yl)-benzamide] was run?
**A.** Its Ki is greater than 1 µM.

**Q.** And the Ki [2]?
**A.** Its Ki is less than 0.05 µM.

**Q.** With `CC(C)n1cc(-c2ccc(C#N)cc2)c2ccc(NS(C)(=O)=O)cc21` [Example 28, N-[3-(4-Cyano-phenyl)-1-isopropyl-1H-indol-6-yl]-methanesulfonamide] as the compound, how does the Ki [1] read?
**A.** Its Ki is greater than 1 µM.

**Q.** What about the Ki [2] of the same compound?
**A.** The Ki was less than 0.05 µM.

**Q.** Which results are given for `CC(C)n1cc(-c2ccc3sccc3c2)c2ccc(NS(C)(=O)=O)cc21` [Example 95, N-(3-Benzo[b]thiophen-5-yl-1-isopropyl-1H-indol-6-yl)-methanesulfonamide]?
**A.** Ki [1]: > 1 µM; Ki [2]: < 0.05 µM

**Q.** What does the source list for `CC(C)n1cc(-c2ccc(C#N)cc2)c2ccc(NS(=O)(=O)N3CCOCC3)cc21` [Example 100, Morpholine-4-sulfonic acid [3-(4-cyano-phenyl)-1-isopropyl-1H-indol-6-yl]-amide]?
**A.** Ki [1]: > 1 µM; Ki [2]: 0.05 to 0.1 µM

**Q.** What does the source list for `CS(=O)(=O)Nc1ccc2c(-c3ccc(C#N)cc3)cn(C3CCCC3)c2c1` [Example 63, N-[3-(4-Cyano-phenyl)-1-cyclopentyl-1H-indol-6-yl]-methanesulfonamide]?
**A.** Ki [1]: > 1 µM; Ki [2]: < 0.05 µM

**Q.** With `COc1ccc(-c2cn(C(C)C)c3cc(NS(C)(=O)=O)ccc23)cn1` [Example 88, N-[1-Isopropyl-3-(6-methoxy-pyridin-3-yl)-1H-indol-6-yl]-methanesulfonamide] as the compound, how does the Ki [1] read?
**A.** The Ki was greater than 1 µM.

**Q.** What about the Ki [2] of the same compound?
**A.** The Ki was less than 0.05 µM.

**Q.** For `CC(C)n1cc(-c2ccc(O)cc2)c2ccc(NS(C)(=O)=O)cc21` [Example 93, N-[3-(4-Hydroxy-phenyl)-1-isopropyl-1H-indol-6-yl]-methanesulfonamide], which Ki [1] is on record?
**A.** Its Ki is greater than 1 µM.

**Q.** And the Ki [2]?
**A.** The Ki was less than 0.05 µM.

**Q.** `CC(C)n1cc(-c2ccc(C#N)c(F)c2)c2ccc(NS(C)(=O)=O)cc21` [Example 38, N-[3-(4-Cyano-3-fluoro-phenyl)-1-isopropyl-1H-indol-6-yl]-methanesulfonamide] was tested. Which Ki [1] did it give?
**A.** Its Ki is greater than 1 µM.

**Q.** What about the Ki [2] of the same compound?
**A.** Its Ki is less than 0.05 µM.

**Q.** How did the Ki [1] turn out when `CC(C)n1cc(-c2ccc(C#N)s2)c2ccc(NS(C)(=O)=O)cc21` [Example 43, N-[3-(5-Cyano-thiophen-2-yl)-1-isopropyl-1H-indol-6-yl]-methanesulfonamide] was run?
**A.** The Ki was greater than 1 µM.

**Q.** And the Ki [2]?
**A.** Its Ki is less than 0.05 µM.

**Q.** Which Ki [1] does the source give for `Cn1cc(-c2ccc(C#N)cc2)c2ccc(NS(=O)(=O)c3cccs3)cc21` [Example 32, Thiophene-2-sulfonic acid [3-(4-cyano-phenyl)-1-methyl-1H-indol-6-yl]-amide] here?
**A.** Its Ki is greater than 1 µM.

**Q.** And the Ki [2]?
**A.** The Ki was less than 0.05 µM.

**Q.** `CC(C)n1cc(-c2ccc(C#N)cc2)c2ccc(NS(=O)(=O)C(F)(F)F)cc21` [Example 98, N-[3-(4-Cyano-phenyl)-1-isopropyl-1H-indol-6-yl]-C,C,C-trifluoro-methanesulfonamide] was tested. Which Ki [1] did it give?
**A.** The Ki was greater than 1 µM.

**Q.** What about the Ki [2] of the same compound?
**A.** The Ki was less than 0.05 µM.

**Q.** Which results are given for `CC(C)n1cc(-c2ccc3c(cnn3C)c2)c2ccc(NS(C)(=O)=O)cc21` [Example 107, N-[1-Isopropyl-3-(1-methyl-1H-indazol-5-yl)-1H-indol-6-yl]-methanesulfonamide]?
**A.** Ki [1]: > 1 µM; Ki [2]: 0.05 to 0.1 µM

**Q.** `Cn1cc(-c2ccc(C#N)cc2)c2ccc(NS(C)(=O)=O)cc21` [Example 25, N-[3-(4-Cyano-phenyl)-1-methyl-1H-indol-6-yl]-methanesulfonamide] was tested. Which Ki [1] did it give?
**A.** Its Ki is greater than 1 µM.

**Q.** What about the Ki [2] of the same compound?
**A.** The Ki was less than 0.05 µM.

**Q.** `CC(C)n1cc(-c2ccc(C=NO)cc2)c2ccc(NS(C)(=O)=O)cc21` [Example 94, N-{3-[4-(Hydroxyimino-methyl)-phenyl]-1-isopropyl-1H-indol-6-yl}-methanesulfonamide] was tested. Which Ki [1] did it give?
**A.** The Ki was greater than 1 µM.

**Q.** What about the Ki [2] of the same compound?
**A.** The Ki was less than 0.05 µM.

**Q.** Which Ki [1] does the source give for `CS(=O)(=O)Nc1ccc2c(-c3ccc(C#N)cc3)cn(Cc3ccccc3)c2c1` [Example 72, N-[1-Benzyl-3-(4-cyano-phenyl)-1H-indol-6-yl]-methanesulfonamide] here?
**A.** The Ki was 0.05 to 0.1 µM.

**Q.** What about the Ki [2] of the same compound?
**A.** Its Ki is less than 0.05 µM.

**Q.** For `CC(C)n1cc(-c2ccccc2)c2ccc(NS(C)(=O)=O)cc21` [Example 85, N-(1-Isopropyl-3-phenyl-1H-indol-6-yl)-methanesulfonamide], which Ki [1] is on record?
**A.** The Ki was greater than 1 µM.

**Q.** And the Ki [2]?
**A.** The Ki was less than 0.05 µM.

**Q.** What does the source list for `CS(=O)(=O)Nc1ccc2c(-c3ccc(C#N)cc3)cn(CC3CCCCC3)c2c1` [Example 77, N-[3-(4-Cyano-phenyl)-1-cyclohexylmethyl-1H-indol-6-yl]-methanesulfonamide]?
**A.** Ki [1]: 0.1 to 0.5 µM; Ki [2]: < 0.05 µM

**Q.** `CSc1ccc(-c2cn(C(C)C)c3cc(NS(C)(=O)=O)ccc23)cc1` [Example 83, N-[1-Isopropyl-3-(4-methylsulfanyl-phenyl)-1H-indol-6-yl]-methanesulfonamide] was tested. Which Ki [1] did it give?
**A.** The Ki was greater than 1 µM.

**Q.** And the Ki [2]?
**A.** Its Ki is less than 0.05 µM.

**Q.** How did the Ki [1] turn out when `CC(C)Cn1cc(-c2ccc(C#N)cc2)c2ccc(NS(C)(=O)=O)cc21` [Example 29, N-[3-(4-Cyano-phenyl)-1-isobutyl-1H-indol-6-yl]-methanesulfonamide] was run?
**A.** The Ki was 0.1 to 0.5 µM.

**Q.** What about the Ki [2] of the same compound?
**A.** Its Ki is less than 0.05 µM.

**Q.** What does the source list for `CC(C)n1cc(-c2ccc(Cl)cc2)c2ccc(NS(C)(=O)=O)cc21` [Example 36, N-[3-(4-Chloro-phenyl)-1-isopropyl-1H-indol-6-yl]-methanesulfonamide]?
**A.** Ki [1]: > 1 µM; Ki [2]: < 0.05 µM
